Data from BigSolDB 2.1.

CC(S)C(=O)NCC(=O)O (stereo not given)
solubility (mole fraction)
Conditions | 273.15 K | 278.15 K | 283.15 K | 288.15 K | 293.15 K | 298.15 K | 303.15 K | 308.15 K | 313.15 K | 318.15 K
in acetonitrile | 0.00946 | 0.0105 | 0.0115 | 0.0126 | 0.0138 | 0.0151 | 0.0165 | 0.018 | 0.0196 | 0.0212
in isobutanol | 0.0119 | 0.0141 | 0.0166 | 0.0191 | 0.0217 | 0.0247 | 0.0281 | 0.0321 | 0.0365 | 0.0413
in n-butanol | 0.0251 | 0.0311 | 0.0379 | 0.0451 | 0.0529 | 0.0614 | 0.0709 | 0.0811 | 0.0918 | 0.103
in toluene | 0.00033 | 0.00037 | 0.00041 | 0.00045 | 0.0005 | 0.00056 | 0.00062 | 0.00069 | 0.00077 | 0.00087
